Test results published in BindingDB's records for doi:10.1021/jm025550h (Abbott Laboratories, 2002).

Legend:
[1] = Effective concentration in vitro against rabbit urethra Alpha-1 adrenergic receptor
[2] = Effective concentration in vitro against rabbit urethra Alpha-1A adrenergic receptor

Structure (SMILES)	EC50 [1]	EC50 [2]
CC(N)C(O)c1ccccc1 [(1R, 2S)-2-Amino-1-phenyl-propan-1-ol]	230 µM	–
COc1ccc(OC)c(C(O)CN)c1 (stereo not drawn)	7.1 µM	–
CCS(=O)(=O)Nc1cccc(Cc2cnc[nH]2)c1 [ABT-866]	–	0.6 µM
